Test results published in PubChem BioAssay (NCI).
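Results reflect a 48-hour exposure of cells in 96-well plates to compound at five concentrations. Abbreviation: GI50, concentration required for 50% inhibition of growth. TGI marks complete inhibition of growth.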

Experiments:
Assay in all cases: DTP human tumour cell line panel, 48 h
U251 CNS = system: U251 CNS
SK-OV-3 ovarian = system: SK-OV-3 ovarian
HL-60(TB) leukemia = system: HL-60(TB) leukemia
LOX IMVI melanoma = system: LOX IMVI melanoma
SR leukemia = system: SR leukemia
EKVX NSCLC = system: EKVX NSCLC
TK-10 renal = system: TK-10 renal
KM12 colon = system: KM12 colon
NCI-H460 lung = system: NCI-H460 lung
M14 melanoma = system: M14 melanoma

Row | SMILES | TGI (U251 CNS) [µM] | TGI (SK-OV-3 ovarian) [µM] | TGI (HL-60(TB) leukemia) [µM] | TGI (LOX IMVI melanoma) [µM] | TGI (SR leukemia) [µM] | TGI (EKVX NSCLC) [µM] | TGI (TK-10 renal) [µM] | TGI (KM12 colon) [µM] | TGI (NCI-H460 lung) [µM] | GI50 (U251 CNS) [µM] | GI50 (SK-OV-3 ovarian) [µM] | GI50 (HL-60(TB) leukemia) [µM] | GI50 (LOX IMVI melanoma) [µM] | GI50 (SR leukemia) [µM] | GI50 (M14 melanoma) [µM] | TGI (M14 melanoma) [µM] | GI50 (EKVX NSCLC) [µM] | GI50 (TK-10 renal) [µM] | GI50 (KM12 colon) [µM] | GI50 (NCI-H460 lung) [µM]
1 | COC(=O)C1(C(=O)OC)CC(=O)c2cc3c(cc2-c2c(cc(OC)c(OC)c2OC)C1)OCO3 | > 211 | > 211 | > 211 | > 211 | > 211 | > 211 | > 211 | > 211 | > 211 | – | – | – | – | – | – | – | – | – | – | –
2 | Cc1ccc(-c2nc3nc(-c4ccc(F)cc4)nc(N4CCCNCC4)c3o2)cc1 | 2.83 | 3.37 | 0.46 | 2.55 | 0.813 | 3.34 | 3.09 | 3.42 | 3.53 | 1.33 | 1.87 | 0.211 | 1.18 | 0.256 | 1.86 | 3.56 | 1.78 | 1.66 | 1.79 | 1.79
3 | CNC(=O)c1nn(C)c2c1C(C)(C)Cc1cnc(Nc3ccc(N4CCN(C)CC4)cc3)nc1-2 | > 10 | 1.54 | > 10 | > 10 | > 5.71 | > 10 | > 10 | > 10 | > 10 | 0.846 | 0.209 | 0.695 | 0.606 | 0.452 | 0.248 | > 8.53 | 1.93 | 0.116 | 0.347 | 0.408
4 | COCCOCCOC1=CC(=O)c2c(O)ccc(O)c2C1=O | – | – | 2.52 | 3.11 | 5.03 | 7.54 | 4.51 | 3.3 | 3.47 | – | – | – | – | – | – | 2.14 | – | – | – | –
5 | CC(C)(C)OC(=O)NCCCCCCCn1c2c(c3ccccc3c1=O)C(=O)c1ccccc1-2 | 89.5 | > 100 | 40.5 | > 100 | > 100 | > 100 | > 100 | > 100 | > 100 | 28.9 | 31.6 | 16.4 | 65.2 | 4.95 | 44.4 | > 100 | > 100 | 38.3 | 60.6 | 28.6
6 | O=C(O)[C@H](c1ccccc1)[C@@H](C(=O)O)c1ccccc1 | > 100 | > 100 | > 100 | > 100 | > 100 | > 100 | > 100 | > 100 | > 100 | – | – | – | – | – | – | > 100 | – | – | – | –
7 | O=C(N/N=C/c1ccccc1O)c1ccccc1 | > 100 | > 100 | 8.05 | 10.9 | 28.4 | > 100 | > 100 | > 100 | > 100 | 1.94 | 5.14 | 2.32 | 1.47 | 1.79 | 1.75 | 15.3 | 2 | 4.11 | 4.1 | 1.18
8 | O=S(=O)(NCCCNc1nccc(-c2c(-c3ccc(F)cc3)nc3sccn23)n1)c1ccc2ccccc2c1 | > 100 | > 100 | > 100 | > 100 | > 100 | – | > 100 | 9.96 | > 100 | 4.87 | > 100 | 4.25 | 4.35 | 4.01 | 6.53 | > 100 | – | 7.54 | 2.86 | 3.74
9 | C=C1C(=O)O[C@H]2[C@H]1CC/C(COC(=O)NCC(C)c1ccc(CC(C)C)cc1)=C\CC[C@@]1(C)O[C@@H]21 (some centres not stated) | 8.7 | 11 | 2.83 | 1 | 3.6 | 7.95 | 7.23 | 8.24 | 10 | 4.32 | 5.94 | 0.786 | 0.506 | 0.678 | – | – | 3.85 | 3.34 | 3.53 | 4.69
10 | CCCCN(CC)CC(C(C)=O)c1c(O)c2ccccc2oc1=O (configuration not stated) | > 100 | > 100 | > 100 | > 100 | > 100 | > 100 | > 100 | > 100 | > 100 | – | – | – | – | – | – | > 100 | – | – | – | –
11 | CC(C)CCC1(CCN)C(=O)NC(=O)NC1=O | > 100 | > 100 | 66.7 | > 100 | > 100 | > 100 | > 100 | > 100 | > 100 | – | – | – | – | – | – | > 100 | – | – | – | –
12 | Cc1cc(N(CCC#N)CCC#N)ccc1/C=C(\NC(=O)/C=C/c1ccccc1)C(=O)NN | > 78 | > 82.6 | > 100 | > 100 | > 100 | > 100 | > 76.8 | > 100 | > 100 | – | – | – | – | – | – | > 100 | – | – | – | –
13 | COc1ccc2c(c1)/C(=C/c1cc(OC)c(OC)c(OC)c1)C(=O)N2 | 16.7 | 5.23 | > 100 | > 100 | 0.59 | > 100 | > 70.6 | > 39.9 | > 100 | 0.407 | 0.26 | 0.0908 | 0.443 | – | 0.351 | 11.7 | 11.6 | 1.19 | 0.102 | 0.269
14 | O=C(O)c1ccccc1/C=N/N=C1c2ccccc2-c2ccccc21 | 55.6 | > 100 | 80.8 | > 100 | 95.5 | > 100 | > 100 | 58.7 | 70.2 | – | – | – | – | – | – | > 100 | – | – | – | –
15 | C=CC(OCC)(OCC)OCC | > 100 | > 100 | > 100 | > 100 | 65.4 | > 100 | > 100 | > 100 | > 100 | – | – | – | – | – | – | > 100 | – | – | – | –
